Source: patent publication US8664252B2, “Phosphodiesterase type III (PDE III) inhibitors or CA2+-sensitizing agents for the treatment of hypertrophic cardiomyopathy” (Boehringer Ingelheim Vetmedica GmbH, priority 2008, dated 2014)

Test system: Cats Suffering from HCM
Test: Treatment of a cat suffering from HCM with acute circulatory failure (clinical case)
Assay type: in vivo
Method: A 15 year old castrated male tomcat of mixed breed (mother Persian, father European short hair, bodyweight 6 kg) was brought to the veterinary clinic in March 2008. The animal was lethargic and unable to move. Examination of the cardiovascular system indicated acute circulatory failure, accompanied with tachycardia (>180 bpm). Echocardiographic investigation indicated a thickened left ventricular wall and septum, which are related to HCM.
Because of the desperate situation 1.25 mg pimobendan were applied orally with the expectation/fear that this measure would/could probably further deteriorate the status of the cat.
This treatment is still being continued.

## NS(=O)(=O)c1cc(C(=O)O)c(NCc2ccco2)cc1Cl [furosemide]
15 year old tomcat with HCM, 6 kg, furosemide 1 mg/kg i.v., immediate administration
  control of acute circulatory failure (clinical situation): did not result in a sufficient control of the situation

## COc1ccc(-c2nc3cc(C4=NNC(=O)CC4C)ccc3[nH]2)cc1 (stereo not drawn) [pimobendan, 4,5-dihydro-6-[2-(4-methoxyphenyl)-1H-benzimidazol-5-yl]-5-methyl-3 (2H)-pyridazinone]
Same cat, after insufficient furosemide, 1.25 mg pimobendan orally, single application
  clinical symptoms / recovery: clinical symptoms improved and the cat recovered within a few hours
Same cat, continued treatment 20 microgram/kg/day pimobendan orally
  left ventricular filling and systolic function (ultrasound): significant recovery of left ventricular filling and systolic function
